Calls of active or inactive are those of the source.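 How the source made its calls: active means compounds giving half or more protection of infected cells from virus-caused growth loss, again on retest; inactive means the rest.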 Where a SMILES comes first, the peptide text is derived from it.
Test system: CEM cells HIV-1 protection, formazan growth assay
Test: NCI AIDS Antiviral Assay
Details: for IC50: measured here: growth of uninfected CEM cells
How it was run: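 Protection of CEM cells against HIV-1 was scored from cell growth (soluble formazan) across five concentrations, with parallel uninfected cells. Lack of protection may reflect toxicity.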

## CC(=O)OCCOCn1c2ccccc2c2c3c(c4c5ccccc5n(COCCOC(C)=O)c4c21)C(=O)N(Cc1ccccc1)C3=O
  outcome: inactive

## O=c1[nH]cc(/C=N\OCCP(=O)(O)O)c(=O)[nH]1
  EC50: > 200 µM
  IC50: > 200 µM

## CC(C)(C)C1CCC(C[Se]c2ccccc2)([N+](=O)[O-])CC1 (configuration not stated)
  outcome: inactive

## COC(=O)C12OC(C)(C(CC(=O)OC(C)(C)C)C1=O)C1C(=O)N(c3ccccc3)C(=O)C12 (configuration not stated)
  EC50: > 200 µM
  IC50: > 200 µM

## COc1ccc2cc(Oc3ccc(Cl)cc3)c(=O)oc2c1
  EC50: > 200 µM
  IC50: > 200 µM

## O=C(c1cccnc1)c1cc(-c2ccccn2)c(=O)n2ccccc12
  EC50: > 200 µM
  IC50: > 200 µM

## O=CC(=C(I)I)c1ccccc1
  EC50: > 2 µM
  IC50: 1.05 µM

## COC(=O)c1cnn2c1n[n+]([O-])c1ccccc12
  EC50: > 200 µM
  IC50: > 200 µM

## CC1CC/C(=C\c2ccc(F)cc2)C2=C1C(c1ccc(F)cc1)N1C(=O)CSC1=N2 (configuration not stated)
  EC50: > 200 µM
  IC50: 75.9 µM

## CC1(C)OCC2(CO1)CSCCCSCC1(COC(C)(C)OC1)CSCCCSC2
  EC50: > 10.5 µM
  IC50: > 10.5 µM

## CC1(C)C(=O)N=C(N)N1C(=O)OCc1ccccc1
  EC50: > 200 µM
  IC50: > 200 µM

## CN(CC#N)C1CCC[C@]1(O)C#C[Si](C)(C)c1ccccc1 (some centres not stated)
  EC50: > 60.3 µM
  IC50: 57.5 µM

## COC(=O)CC(=O)/C(=C/C(C/C=C(\C(=O)CC(=O)OC)C(=O)OC)OC)C(=O)OC (configuration not stated)
  EC50: > 200 µM
  IC50: > 200 µM

## CCOC(=O)C1C[C@@H](O)CN1C(=O)c1ccc2c(c1)OCCO2 (some centres not stated)
  EC50: > 200 µM
  IC50: > 200 µM

## CC(C)(C)N/N=C(\C(=O)Nc1cccc(Cl)c1)C1C(=O)Nc2ccccc2S1=O (configuration not stated)
  outcome: inactive

## CCC12CCCN(Cc3ccccc3)C1c1c([nH]c3ccccc13)C(CO)C2 (configuration not stated)
  EC50: > 26.3 µM
  IC50: > 26.3 µM

## Cc1cccc(Nc2nc3ccccc3nc2NS(=O)(=O)c2ccccc2)c1
  EC50: > 100 µM
  IC50: 15.5 µM

## COc1ccc(C2Oc3cc(OC)ccc3C(=O)C2c2ccccc2)cc1 (configuration not stated)
  EC50: > 200 µM
  IC50: 31.6 µM

## NC(=O)CS(=O)(=O)NC(N)=O
  EC50: > 200 µM
  IC50: > 200 µM

## C=C1C(=O)OC2/C=C(\C)C3OC3/C=C(/C(=O)OC)C(OC(C)=O)C(OC(=O)C(C)(O)C(C)OC(C)=O)C12 (configuration not stated)
  EC50: > 129 µM
  IC50: 0.832 µM

## O=P(c1ccccc1)(c1ccccc1)c1ccc2c(c1)OCCOCCOCCOCCO2
  EC50: > 200 µM
  IC50: > 200 µM

## S=C(Nc1cccc(Cl)c1)Nc1ccccn1
  EC50: > 200 µM
  IC50: > 200 µM

## C=CC[N+](CC)(CC)Cc1ccc(C[N+](CC)(CC)CC=C)cc1
  EC50: > 513 µM
  IC50: > 513 µM

## CCOC(=O)C(NCc1ccccc1)(NC(=O)c1ccccc1)C(F)(F)F (configuration not stated)
  outcome: inactive

## COc1ccc2c(C3(O)CCNCC3)c[nH]c2c1
  outcome: inactive

## c1ccc2c(c1)Cc1cn3c(nc1-2)nc1ccccc13
  EC50: > 200 µM
  IC50: 129 µM

## Cc1ccc(S(=O)(=O)OC2CSSCC2OS(=O)(=O)c2ccc(C)cc2)cc1 (configuration not stated)
  outcome: inactive

## CC(C)C1OC(N)=C(C#N)C1(C#N)C#N (configuration not stated)
  EC50: > 200 µM
  IC50: 7.41 µM

## O=C1c2ccccc2CCC1(Br)C(Br)c1ccccc1 (configuration not stated)
  EC50: > 200 µM
  IC50: 5.37 µM

## O=c1nc(-c2ccccc2)cc(CC(O)(c2ccc(C(F)(F)F)cc2)c2ccc(Cl)c(Cl)c2)[nH]1 (configuration not stated)
  EC50: > 20 µM
  IC50: > 20 µM

## Nc1nc(O)c2ncn([C@H]3CC[C@@H](CO)O3)c2n1
  EC50: 1.74 µM
  IC50: > 200 µM

## Cc1ccc(C)c(C(=O)c2ccccc2C(=O)O)c1
  EC50: > 200 µM
  IC50: > 200 µM

## Cc1cccc(C(C)C)c1N1C(=O)C(=O)C(c2nc3ccccc3o2)C(=O)C1=O
  EC50: > 13.5 µM
  IC50: > 13.5 µM

## N#CCCN(c1ccc(C=Nc2cccc([N+](=O)[O-])c2)cc1)S(=O)(=O)c1ccccc1
  outcome: inactive

## Cn1cnc(CCc2ccccc2)n1
  EC50: > 1120 µM
  IC50: > 1120 µM

## CCCCCCCCNC(=O)/C(=C\c1ccc2c(c1)OCO2)NC(=O)c1ccccc1
  EC50: > 58.9 µM
  IC50: 45.7 µM

## N#Cc1c(N)c(C(=O)Nc2ccc(Cl)cc2)n2c1CCC2
  EC50: > 200 µM
  IC50: > 200 µM

## COc1cc(C(=O)Oc2c(C(C)=O)sc3c2c(=O)n(-c2ccccc2)c(=S)n3-c2ccccc2)cc(OC)c1OC
  EC50: > 200 µM
  IC50: 1.1 µM

## CCC(C)C(NC(=O)CNC(=O)C(Cc1c[nH]c2ccccc12)NC(=O)C(NC(=O)C(NC(=O)C(N)CC(C)C)C(C)O)C(C)C)C(=O)NC(CCCCN)C(=O)NC(CCC(N)=O)C(=O)NC(CC(C)C)C(=O)NC(CCC(N)=O)C(=O)NC(C)C(=O)NC(CCCN=C(N)N)C(N)=O (configuration not stated) (H-LTVWGIKQLQAR-NH2; configuration not given here)
  EC50: > 50.1 µM
  IC50: > 50.1 µM

## O=S(=O)(O)c1cc(N=Nc2cc(S(=O)(=O)O)c3cccnc3c2O)ccc1/C=C/c1ccc(N=Nc2cc(S(=O)(=O)O)c3cccnc3c2O)cc1S(=O)(=O)O (tested in a mixture with another compound)
  EC50: 2.95 µM
  IC50: 50.1 µM

## CCOC(=O)C[N+]1(C)CCC(O)CC1 (configuration not stated)
  EC50: > 200 µM
  IC50: > 200 µM

## Nc1nc(N)nc(CC(=O)O)n1
  EC50: > 200 µM
  IC50: > 200 µM

From PubChem BioAssay AID179 (DTP/NCI, 2004)
